# Entries after “also recorded” stand apart in the source; their conditions may differ.
# What was measured:
# [1] = tested on: cultured cortical neurons; assay: Epileptiform burst activity in cultured cortical neurons (whole-cell patch-clamp); assay type: cell-based, mouse
# Procedure: Mouse cortical neurons were prepared from newborn C57BL/6 mice as previously described. Qi et al., “Cyclothiazide induces robust epileptiform activity in rat hippocampal neurons both in vitro and in vivo” The Journal Of Physiology 571:605-618 (2006). Briefly, the newborn mouse cerebral cortices were dissected out in ice-cold HEPES-buffered saline solution, washed and digested with 0.05% trypsin-EDTA at 37° C. for 20 min. After deactivation of trypsin with serum-containing medium, cells were centrifuged, resuspended, and seeded on a monolayer of cortical astrocytes at a density of 10,000 cells/cm^2 in 24-well plates. The neuronal culture medium contained MEM (500 ml, Invitrogen), 5% fetal bovine serum (Atlanta Biologicals), 10 ml B-27 supplement (Invitrogen), 100 mg NaHCO3, 2 mM Glutamax (Invitrogen), and 25 units/ml penicillin & streptomycin. AraC (4 μM, Sigma) was added to inhibit the excessive proliferation of astrocytes. Cell cultures were maintained in a 5% CO2-humidified incubator at 37° C. for 14-21 days.
# The cultured neurons were placed in the recording chamber with continuous perfusion of the bath solution consisting of (mM): 128 NaCl, 10 Glucose, 25 HEPES, 5 KCl, 2 CaCl2, 1 MgSO4, pH 7.3 adjusted with NaOH, and osmolarity ˜300 mOsm. For recording spontaneous firing under current clamp mode, pipettes were filled with an internal solution containing (in mM): 125 K-gluconate, 5 Na-phosphocreatine, 5 EGTA, 10 KCl, 10 HEPES, 4 Mg-ATP, 0.3 Na-GTP, 280-290 mOsm, pH 7.3 adjusted with KOH. Epileptiform activity in cultured neurons was induced either by 10 μM CTZ for 24 h, or 1 μM KA for 2 h, or 50 μM 4-AP for 2 h. The burst activity was defined as previously described. Qi et al., “Cyclothiazide induces robust epileptiform activity in rat hippocampal neurons both in vitro and in vivo” The Journal Of Physiology 571:605-618 (2006). In brief, at least five consecutive action potentials overlaying on top of the large depolarization shift (≥10 mV depolarization and ≥300 ms in duration).
# [2] = tested on: cultured neurons; assay: LIVE/DEAD viability assay, kainic acid (KA)-induced cell death model; assay type: cell-based, mouse; conditions: sodium salt
# From the text: Epileptic activity may induce cell death both in epileptic patients and animal models. Chen et al., “Differential roles of NR2A- and NR2B-containing NMDA receptors in activity-dependent brain-derived neurotrophic factor gene regulation and limbic epileptogenesis” The Journal Of Neuroscience: the official journal of the Society for Neuroscience 27:542-552 (2007); and Naseer et al., “Maternal epileptic seizure induced by pentylenetetrazol: apoptotic neurodegeneration and decreased GABAB1 receptor expression in prenatal rat brain” Molecular Brain 2:20 (2009). […] Wu et al., “Protective effect of resveratrol against kainate-induced temporal lobe epilepsy in rats” Neurochemical Research 34:1393-1400 (2009). In a control group, most neurons appeared to be healthy in morphology and were stained by calcein (green, live) but not ethidium homodimer-1 (EthD-1, red, death). See, FIG. 1J, left. […]
# A LIVE/DEAD® Viability/Cytotoxicity Assay Kit (L3224, Life Technologies) containing ethidium homodimer-1 and calcein-AM was used to examine cell viability. Ethidium homodimer-1 binds to cellular DNA and typically labels dead cells in red fluorescence, while Calcein-AM can be cleaved by esterases in live cells to give strong green fluorescence. […] Cell survival and death rate were measured by quantifying the percentage of green and red fluorescent cells, respectively. […]
# [3] = tested on: PTZ-induced seizure behavior; assay: Seizure behavior test (Racine score) after PTZ; assay type: in vivo, mouse; conditions: PTZ 50 mg/kg i.p., adult mice
# Procedure: Male mice were divided into three groups: vehicle control group (saline, n=9), D-gluconic acid sodium at 1 g/kg group (n=10), and D-gluconic acid sodium at 2 g/kg group (n=11). PTZ (50 mg/kg) was intraperitoneally administered 1 hr after drug treatment. After PTZ injection, the behavior was monitored and observed for 1 hr. The seizure behavior was classified according to Racine Score: stage 0, no response; stage 1, facial twitching; stage 2, nod; stage 3, forelimb clonic, tail upright; stage 4, stand with forelimbs clonic; stage 5, stand and fall, jump, general clonic seizure, general clonic and tonic seizure or death. Racine et al., “Modification of seizure activity by electrical stimulation. 3. Mechanisms” Electroencephalogr Clin Neurophysiol 32:295-299 (1972).
# [4] = tested on: GABAA-R current; assay: GABAA-R current induced by isoguvacine before and after membrane depolarization (gramicidin-perforated recording); assay type: cell-based, mouse; conditions: isoguvacine 100 μM; depolarization 40 mV, 10 s; NaGcA 20 mM
# Procedure: To investigate the effect of such long-lasting epileptiform bursts on GABA function, gramicidin-perforated whole-cell recordings were performed to keep the intracellular Cl− intact in neonatal animals. GABAA receptor (GABAA-R) currents induced by the receptor agonist isoguvacine (100 μM, 50 ms) before and after a membrane-depolarizing shift (40 mV for 10 s) that mimics the epileptiform burst activity. […] FIGS. 16B and 16C.
smiles,measurement,setting,value
"O=C([O-])[C@H](O)[C@@H](O)[C@H](O)[C@H](O)CO.[Na+] [NaGcA, D-gluconic acid sodium salt]",KA-induced epileptiform burst activity,"[1]; 1 μM KA for 2 hrs, 10 mM NaGcA, sodium salt",greatly suppressed; also recorded: dramatically suppressed
same,neurons showing epileptiform activity after CTZ co-treatment,"[1]; 10 μM CTZ together with 10 mM NaGcA, 3 out of 17 neurons",18%
same,4-AP-induced epileptiform activity,"[1]; 50 μM 4-AP for 2 hrs, 10 mM NaGcA, sodium salt",completely blocked; also recorded: obviously suppressed
same,CTZ-induced epileptiform burst activity,"[1]; 10 mM NaGcA, acute application",completely blocked
same,spontaneous epileptiform activity (burst action potentials),"[1]; 5-20 mM NaGcA in bath solution (FIG. 1A: 20 mM), sodium salt",inhibited spontaneous epileptiform activity; also recorded: stopped immediately
same,induction of epileptiform activity by CTZ,"[1]; co-application of 10 μM CTZ and 10 mM NaGcA during induction, sodium salt",great reduction; also recorded: lack of burst activity
same,average frequency and duration of epileptiform bursts,[1]; neurons co-treated with CTZ and NaGcA (5 and 10 mM),significantly reduced
same,KA-induced neuronal death,"[2]; 10 μM KA for 24 hrs, co-application of 20 mM NaGcA",abolished; also recorded: neuron protection function
same,"neuron survival rate, NaGcA alone",[2]; 20 mM NaGcA alone,no side effect; also recorded: without any side effect
same,behavioral seizure score,[3],mild inhibitory effect
same,latency of seizure behavior (Racine score 3 and above),[3],dose-dependently prolonged
same,depolarization-induced enhancement of GABAA-R current,[4],strongly inhibited

# Reference: US11666640B2, “Glucose oxidase compositions as a neonate anticonvulsant” (PENN STATE RESEARCH FOUNDATION, priority 2018, dated 2023)
